Values quoted from earlier work, collected in patent publication US6500456B1 (priority 1997, dated 2002).

Conditions: at 20° C., pure nitroglycerin

Structure (SMILES): O=[N+]([O-])OCC(CO[N+](=O)[O-])O[N+](=O)[O-] [nitroglycerin]
- Vapor pressure: about 0.00026 mm
